From US20220144850A1, “INDOLO HEPTAMYL OXIME ANALOGUE AS PARP INHIBITOR” (Chia Tai Tianqing Pharmaceutical Group Co., Ltd., priority 2019, published 2022) come the findings set out here.

Usually fraction unbound stands for free concentration divided by total concentration. Read a high fraction unbound as much free substance. In general, IC50 refers to the concentration at which inhibition is half-maximal.

Data set [1] in a line: Plasma protein binding rate, SD rat plasma (equilibrium dialysis). In kind it is in vitro ADME. The following applies: Sprague-Dawley, SD rats plasma, dialysis 4 h at 37° C. As to the method: Experimental Example 5: Study on Plasma Protein Binding Rate
The protein binding rates of the compounds disclosed herein in plasma of human, CD-1 mice and SD rats were determined. 796 μL of blank plasma was taken from human, CD-1 mice and SD rats, and added with 4 μL of test compound working solution (400. μM) or warfarin working solution (400 μM) to achieve a final concentration of 2 μM of both the test compound and the warfarin in the plasma sample. The samples were mixed well. The final concentration of organic phase DMSO was 0.5%; 50 μL of test compound and warfarin plasma sample was pipetted into a sample receiving plate (three parallels), and a corresponding volume of blank plasma or buffer was immediately added such that the final volume of each sample well was 100 μL. The volume ratio of plasma to dialysis buffer was 1:1, and 400 μL of stop solution was added to these samples, which were used as TO samples for determination of recovery rate and stability. The TO samples were stored at 2-8° C. for subsequent treatment with other dialyzed samples; 150 μL of the test compound and warfarin plasma sample was added to a drug delivery end of each dialysis well, and 150 μL of blank dialysis buffer was added to a corresponding receiving end of the dialysis well. The dialysis plate was then sealed with a gas permeable membrane and placed in a humid, 5% CO2 incubator and incubated at 37° C. for 4 h while shaking at about 100 rpm. After the dialysis was completed, 50 μL of the dialyzed buffer sample and dialyzed plasma sample were pipetted to a new sample receiving plate. A corresponding volume of corresponding blank plasma or buffer was added to the samples such that the final volume of each sample well was 100 μL, and the volume ratio of plasma to dialysis buffer was 1:1. All samples were subjected to LC/MS analysis after protein precipitation, and the protein binding rates and the recovery rates were calculated by the following formulas: protein unbinding rate (%)=100×drug concentration passing through dialysis membrane/drug concentration not passing through dialysate; protein binding rate (%)=100−protein unbinding rate (%); recovery rate (%)=100×(drug concentration passing through dialysis membrane+drug concentration not passing through dialysate)/total drug concentration before dialysis.

Data set [2] relates to PARylation. Nature of the data set: PARylation inhibition in Lovo cells (H2O2 stimulated, anti-PAR antibody). It counts as cell-based. The settings on record: Homo sapiens, 25 mM H2O2. As to the method: Experimental Example 4: Anti-Proliferation Experiment on PARylation
Experimental materials: test compounds; F12K medium; Lovo cells; Anti-Poly (ADP-ribose) mouse monoclonal antibody; FITC-labeled goat anti-mouse IgG; hydrogen peroxide; DAPI; PBS; methanol; acetone; Tween-20; skimmed milk powder; Envision multi-marker analyzer.
Day one: Lovo cells were plated on a plate at 60,000 cells/well, and then incubated overnight at 37° C./5% CO2.
Day two: reagents were prepared: • 1. Washing solution: Tween-20 was added to 1-fold PBS, and the final concentration of Tween-20 was 0.05%. • 2. Blocking solution: skimmed milk powder was added to the washing solution, and the final concentration of skimmed milk powder was 5%. • 3. Cell stationary solution: methanol and acetone were mixed in a ratio of 7:3.
Preparation of test compounds: compound intermediate plate 1: compounds were diluted to final concentrations of 10 μM to 0.13 nM with DMSO and PBS, and the concentration of DMSO was 1%. Compound intermediate plate 2: compounds were diluted to final concentrations of 10 μM to 0.13 nM with DMSO and PBS containing 50 mM hydrogen peroxide, and the concentration of DMSO was 1%.
1. Cell supernatant was removed, and compound was transferred from the compound intermediate plate 1 to the cell plate at 40 μL per well, and the mixture was incubated at 37° C. for 30 min.
Compound wells: compound, DMSO 1%;
Negative and positive controls: 1% DMSO added;
Blank controls: cell-free wells, PBS added.
2. After the incubation was completed, compound was transferred from the compound intermediate plate 2 to the cell plate at 40 μL per well, and the final concentration of H2O2 was 25 mM.
Compound wells: compound+25 mM H2O2
Positive and negative controls: 1% DMSO+25 mM H2O2
Blank controls: cell-free wells, PBS added
4. After the incubation was completed, the cell plate was washed once with PBS pre-cooled on ice and added with 100 μL of pre-cooled cell stationary solution per well. After the cell plate was left to stand at −20° C. for 10 min, the cell stationary solution was shaken off. 5. After being air-dried, the cell plate was washed with PBS at 200 μL per well, and then the PBS was discarded. 6. The cell plate was added with blocking solution at 100 μL per well and incubated at 25° C. for 30 min, after which the blocking solution was shaken off. 7. Anti-PAR antibody which was diluted in blocking solution at a ratio of 1:50, was added to the cell plate at 25 μL per well, and then the mixture was incubated at 25° C. for 60 min.
Negative control wells: blocking solution added at 25 μL/well
Blank control wells: blocking solution added at 25 μL/well
8. […] After removal of the liquid, corresponding fluorescence values were read on Envision: FITC: 480 nm and 530 nm; DAPI: 360 nm and 460 nm. […]

Consider `CC1(c2ccc(-c3[nH]c4cc(F)cc5c4c3CONC5=O)cc2)CCCN1` (stereo not drawn) [Example 25_A], for which the fraction unbound at 4 h, 2 μM in data set [1] is 0.077.
In data set [2], `O=C1NOCc2c(-c3ccc(C4CCCN4)cc3)[nH]c3cc(F)cc1c23` (single isomer, unassigned) [Example 24_A] had an IC50 of 23 nM. In data set [1], the unbound share (fraction unbound) at 4 h, 2 μM was 0.036.
In the same order, the values of `CC1(c2ccc(-c3[nH]c4cccc5c4c3CONC5=O)cc2)CCCN1` (stereo not drawn) [Example 6_A] are 19 nM and 0.176.
Taken in the same sequence, the figures for `O=C1NOCc2c(-c3ccc(C4CCCN4)c(F)c3)[nH]c3cccc1c23` (stereo not drawn) [Example 11_A] were 27 nM and 0.035.
In the same order, the values of `CC1(c2ccc(-c3[nH]c4cc(F)cc5c4c3CONC5=O)cc2F)CCCN1` (single isomer, unassigned) [Example 26_A] are 25 nM and 0.097.
